# Measurements: US6403554B2, “Polyunsaturated fatty acid derivatives and their use” (Ardenia Investments Ltd., priority 1998, dated 2002)
# Where “and” joins values, the source holds several entries; their conditions need not be identical. Equal values may be shown once. Entries after “also recorded” stand apart in the source; their conditions may differ.
# B1: rat AFP: Alpha-fetoprotein isolated from neonatal rat serum; AFP of Examples 42-44 (protein, UniProt P02773 25-611, looked up)
# Alpha-fetoprotein: RVLHTNEFGIESTLDSSQCPTEKNMFNVATIVVAQFVQDATKAEVNKMSSDALAAMKENTGDGCLENQLSVFLDEICHETELSNKYGFSGCCNQSGVERHQCLLARKKTAPDSVPPFHFPETAESCPAYEENRAMSINTFIYDVSKRNPFLYAPTILYLAAQYDKAVPACCKADNMEECFQTKRASMAKELREGSMLNEHVCAVIRKFGSRNLQAVLIIKLSQKFPKANITEIRKLALDVAHIHEQCCHGNAMECLQDGESVMTHMCSQQEILSSKTAECCKLPTIELGYCIIHAENGDKPEGLTLNPSEFLGDRNFAQFSSEEKLLFMASFLHEYSRNHPNLPVSVILKTAKSYQEILEKCSQSETPSKCQDNMEEELQKHIQESQALAKQSCNLYQKLGPYYLQNLFLIGYTRKAPQLTSAELIDLTGKMVSIASTCCQLSEEKRSACGEGLADIYIGHLCLRHEANPVNSGINHCCSSSYSNRRLCITSFLRDETYVPPPFSEDKFIFHKDLCQAQGRALQTMKQELLINLVKQKPEMTEEQHAAVTADFSGLLEKCCKDQDQEACFAKEGPKLISKTREALGV
# B2: human AFP: Alpha-fetoprotein isolated from human cord blood by immunoaffinity chromatography; AFP of Examples 38-41 (protein, UniProt P02771 19-609, looked up)
# Alpha-fetoprotein: RTLHRNEYGIASILDSYQCTAEISLADLATIFFAQFVQEATYKEVSKMVKDALTAIEKPTGDEQSSGCLENQLPAFLEELCHEKEILEKYGHSDCCSQSEEGRHNCFLAHKKPTPASIPLFQVPEPVTSCEAYEEDRETFMNKFIYEIARRHPFLYAPTILLWAARYDKIIPSCCKAENAVECFQTKAATVTKELRESSLLNQHACAVMKNFGTRTFQAITVTKLSQKFTKVNFTEIQKLVLDVAHVHEHCCRGDVLDCLQDGEKIMSYICSQQDTLSNKITECCKLTTLERGQCIIHAENDEKPEGLSPNLNRFLGDRDFNQFSSGEKNIFLASFVHEYSRRHPQLAVSVILRVAKGYQELLEKCFQTENPLECQDKGEEELQKYIQESQALAKRSCGLFQKLGEYYLQNAFLVAYTKKAPQLTSSELMAITRKMAATAATCCQLSEDKLLACGEGAADIIIGHLCIRHEMTPVNPGVGQCCTSSYANRRPCFSSLVVDETYVPPAFSDDKFIFHKDLCQAQGVALQTMKQEFLINLVKQKPQITEEQLEAVIADFSGLLEKCCQGQEQEVCFAEEGQKLISKTRAALGV
# Experiments:
# Assay type in all cases: in vivo, C57B1/6 mice
# [1] = test system: hemagglutinating antibodies in serum; experiment: Humoral immune response: titers of hemagglutinating antibodies in serum; conditions: serum, female mice
# Description: (§1) 0.15 ml of compound 10 was administered intravenously to 6 mice females of CS7B1/6 line (weight 18-22 g) in doses of 45.5, 91 and 136.5 μg of compound 10 per capita for each testing group according to the dose. Simultaneously, a suspension of 5·10^7 sheep erythrocytes was injected intraperitoneally (0.2 ml per capita). Mice in the control group were injected intravenously with equal volume of saline. The effects of compound 10 on humoral immune response were analyzed both by counting the quantity of AFC in the spleen according to Cunningham (per 10^6 spleen cells and per spleen) and estimating the titers of hemagglutining antibodies in serum of the animals (Cunningham A. J., Nature, 1965, Vol.207, No 5001. P.1106-1107), while the titers of hemagglutinating antibodies were evaluated according to litterature (Evans J. et al., Cell, 1974; Vol 3., p.153-158, Feizi T., Menger E., Transfusion, 1970, Vol. 10, p.33-35,).
# (§2) 0.15 ml of compound 11 was administered intravenously to 6 female mice of the C57B1/6 line (weight 18-22 g) in doses of 45.5, 91 and 136.5 μg of compound 11 per capita for each testing group according to the dose. Simultaneously, a suspension of 5·10^7 sheep erytrocytes was injected intraperitoneally (0.2 ml per capita). Mice in the control group were injected intravenously with an equal volume of saline. The effects of compound 11 on humoral immune response was analysed both by counting the quantity of AFC in the spleen according to Cunningham (per 10^6 spleen cells and per spleen) and estimating the titers of hemagglutining antibodies in serum of the animals.
# as §2, with “12” for “11”, “erythrocytes” for “erytrocytes”, “analyzed” for “analysed”
# as §2, with “compound 8” for “compound 11”, “sheep erythrocytes” for “sheep erytrocytes”, “Mice of” for “Mice in”, “response were analyzed” for “response was analysed”
# as §2, with “compound 3” for “compound 11”, “Mice of” for “Mice in”, “with” for “with an”, “response were” for “response was”
# (§3) 0.15 ml of compound 4 was administered intravenously to 6 female mice of the C57B1/6 line (weight 18-22 g) in a doses of 45.5, 91 and 136.5 μg of compound 4 per capita for each testing group according to the dose. Simultaneously, a suspension of 5·10^7 sheep erythrocytes was injected intraperitoneally (0.2 ml per capita). […]
# [2] = test system: antibody-forming cells (AFC) in the spleen; experiment: Influence of AFP/compound complexes and their components on humoral immune response (AFC in spleen); conditions: for Dose at which immunostimulating effect in vivo is displayed: compound in a complex with AFP
# Description: 0.15 ml of AFP/Compound 3 complex was administered intravenously to 6 mice males of C57B1/6 line (weight 18-22 g) in the dose of […] of AFP and 45.5 μg of compound 3 per capita. Simultaneously suspension of 5·10^7 sheep erythrocytes was injected intraperitoneally (0.2 ml per capita). In the group with compound 3 mice were injected intravenously by one in the dose of 45.5 μg. Animals of group with AFP received 9 μg of AFP. Mice of control group were injected intravenously with equal volume of saline. Complex AFP/Compound 3 effect on humoral immune response was analyzed by counting the quantity of AFC in the spleen according to Cunningham (per 10^6 spleen cells and per spleen).
# 0.15 ml of AFP/Compound 2a complex (1:100) was administered intravenously to 6 mice males of C57B1/6 line (weight 18-22 g) in the dose of 9 μg of AFP and 45.5 μg of compound 2a per capita. Simultaneously, a suspension of 5·10^7 sheep erythrocytes was injected intraperitoneally (0.2 ml per capita). In the group with compound 2a mice were injected intravenously by one in the dose of 45.5 μg. Animals of group with AFP received 9 μg of AFP. Mice in the control group were injected intravenously with an equal volume of saline. The effect of the AFP/Compound 2a complex on humoral immune response was analyzed by counting the quantity of AFC in the spleen according to Cunningham (per 10^6 spleen cells and per spleen).
# (§4) 0.15 ml of AFP/Compound 10 complex (1:200) was administered intravenously to 6 male mice of C57B1/6 line (weight 18-22 g) in the dose of 9 μg of AFP and 91 μg of compound 10 per capita. Simultaneously, a suspension of 5·10^7 sheep erythrocytes was injected intraperitoneally (0.2 ml per capita). In the group receiving compound 10 mice were injected intravenously by one in the dose of 91 μg. Animals in the group with AFP received 9 μg of AFP. Micein the control group were injected intravenously with an equal volume of saline. The effect of the AFP/Compound 10 complex on humoral immune response was analyzed by counting the quantity of AFC in the spleen according to Cunningham (per 10^6 spleen cells and per spleen).
# as §4, with “AFP/Compound 14” for “AFP/Compound 10”, “compound 14” for “compound 10”, “group with” for “group receiving”, “Animals of” for “Animals in the”, “AFP. Mice in” for “AFP. Micein”
# 0.15 ml of AFP/Compound 7 complex (1:200) was administered intravenously to 6 male mice of C57B1/6 line (weight 18-22 g) in the dose of 9 μg of AFP and 91 μg of compound 7 per capita. Simultaneously, a suspension of 5·10^7 sheep erythrocytes was injected intraperitoneally (0.2 ml per capita). In the group with compound 7 mice were injected intravenously by one in the dose of 91 μg. Animals of group with AFP received 9 μg of AFP. Mice of control group were injected intravenously with equal volume of saline. AFP/Compound 7 complex effect on humoral immune response was analyzed by counting the quantity of AFC in the spleen according to Cunningham (per 10^6 spleen cells and per spleen).
# 0.15 ml of AFP/Compound 15 complex (1:200) was administered intravenously to 6 mice males of C57B1/6 line (weight 18-22 g) in the dose of 9 μg of AFP and 91 μg of compound 15 per capita. Simultaneously, a suspension of 5·10^7 sheep erythrocytes was injected intraperitoneally (0.2 ml per capita). In the group receiving compound 15, the mice were injected intravenously by one in the dose of 91 μg. Animals in the AFP-group received 9 μg of AFP. […]
# [3] = test system: antibody-forming cells (AFC) in the spleen; experiment: Humoral immune response: counting antibody-forming cells (AFC) in the spleen according to Cunningham, mice immunised with sheep erythrocytes; conditions: compound alone
# Description: as §1, §2
# as §2, with “12” for “11”, “erythrocytes” for “erytrocytes”, “analyzed” for “analysed”
# as §2, with “compound 8” for “compound 11”, “sheep erythrocytes” for “sheep erytrocytes”, “Mice of” for “Mice in”, “response were analyzed” for “response was analysed”
# as §2, with “compound 3” for “compound 11”, “Mice of” for “Mice in”, “with” for “with an”, “response were” for “response was”
# as §3
# [4] = AFP alone 9 μg/mouse i.v., 5-th day, male mice
Molecule,Amount of hemagglutinins ([1]; 45.5 μg/mouse i.v.),Amount of hemagglutinins ([1]; 91 μg/mouse i.v.),Amount of hemagglutinins ([1]; 136.5 μg/mouse i.v.),"Immunogenic activity ([2]; compound alone, 91 μg/mouse)",Dose at which immunostimulating effect in vivo is displayed [2],Dose at which immunostimulating effect in vivo is displayed (micelle form) [3],"Immunogenic activity ([2]; compound alone, 45.5 μg/mouse)","Relative amount of AFC (per 10^6 spleen cells) [2, 4]","Total AFC amount (per spleen) [2, 4]","Immunogenic activity ([2]; AFP alone, 9 μg/mouse)"
"CC/C=C\C/C=C\C/C=C\C/C=C\C/C=C\C/C=C\CCC(=O)N[C@@H](COP(=O)(O)O)C(=O)O [Compound 10, N-docosahexaenoyl-o-phospho-L-serine]",7.8 ± 0.3 Log2 T,7.8 ± 0.3 Log2 T,8.5 ± 0.4 Log2 T,no immunogenic activity; also recorded: do not inhibit immunogenic activity,91 μg/mouse,–,–,–,–,–
"CC/C=C\C/C=C\C/C=C\C/C=C\C/C=C\CCCC(=O)N[C@@H](COP(=O)(O)O)C(=O)O [Compound 14, N-eicosapentaenoyl-o-phospho-L-serine]",6.5 ± 0.3 Log2 T,7.0 ± 0.3 Log2 T,7.2 ± 0.2 Log2 T,no immunogenic activity; also recorded: do not inhibit immunogenic activity,91 μg/mouse,–,–,–,–,–
"CC1=C(/C=C/C(C)=C/C=C/C(C)=C\C(=O)N[C@@H](COP(=O)(O)O)C(=O)O)C(C)(C)CCC1 (stereo in doubt) [Compound 2a, N-(13-cis-retinoyl)-o-phospho-L-serine]",7.2 ± 0.3 Log2 T,7.5 ± 0.2 Log2 T,8.2 ± 0.4 Log2 T,–,45.5 μg/mouse,91 μg/mouse,no immunogenic activity; also recorded: do not inhibit immunogenic activity,–,–,–
B1,–,–,–,–,–,–,–,521.4±49.1 and 507.2±27.5 and 346.1±26.8,59.7±5.1 ·10^3 and 64.6±6.8 ·10^3 and 34.1±3.3 ·10^3,no immunogenic activity; also recorded: do not inhibit immunogenic activity
B2,–,–,–,–,–,–,–,–,–,no immunogenic activity; also recorded: do not inhibit immunogenic activity
